Assay results: ChEMBL document CHEMBL1156236, “Trypanoside, anti-tuberculosis, leishmanicidal, and cytotoxic activities of tetrahydrobenzothienopyrimidines” (Bioorg Med Chem, 2010)
≈ marks a conversion by molar mass, not a printed value.

What was measured:
[1] = Cytotoxicity against african green monkey Vero cells after 72 hrs by MTS assay; conditions: chlorocebus sabaeus, Vero cells
[2] = Selectivity index, ratio of IC50 for african green monkey Vero cells to MIC for Mycobacterium tuberculosis H37Rv ATCC 27294 by microplate alamar blue assay; assay type: functional
[3] = test system: Mycobacterium tuberculosis; test: Antitubercular activity against Mycobacterium tuberculosis H37Rv ATCC 27294 after 7 days by microplate alamar blue assay; assay type: functional; conditions: H37Rv ATCC 27294, 168 h
[4] = test system: Mycobacterium tuberculosis; test: Antitubercular activity against Mycobacterium tuberculosis H37Rv ATCC 27294 after 7 days by low oxygen recovery assay; assay type: functional; conditions: H37Rv ATCC 27294, 168 h
Leishmania amazonensis [5] = test: (§1) Antileishmanial activity against Leishmania amazonensis LV79 MPRO/BR/72/M1841 amastigotes infected BALB/c mouse assessed as reduction of parasite burden at 33 mg/kg/day, intralesionally administered after 1 week post infection 3 times per week for 6 weeks measured on week 4 by fluorescence method relative to control; assay type: functional, organism-based; parameters: scale not given: the % may be the effect or the level left
Leishmania amazonensis [6] = test: Antileishmanial activity against Leishmania amazonensis LV79 MPRO/BR/72/M1841 amastigotes infected BALB/c mouse assessed as lesion diameter at 33 mg/kg/day, intralesionally administered after 1 week post infection 3 times per week for 6 weeks measured on week 4 relative to control; assay type: functional, organism-based
Leishmania amazonensis [7] = test: as §1, with “week 7” for “week 4”; assay type: functional, organism-based; parameters: scale not given: the % may be the effect or the level left
Leishmania amazonensis [8] = test: Antileishmanial activity against Leishmania amazonensis LV79 MPRO/BR/72/M1841 amastigotes infected BALB/c mouse assessed as lesion diameter at 5 mg/kg/day, intralesionally administered after 1 week post infection 3 times per week for 6 weeks measured on week 7 relative to control; assay type: functional
Leishmania amazonensis [9] = test: Antileishmanial activity against Leishmania amazonensis LV79 MPRO/BR/72/M1841 amastigotes infected BALB/c mouse assessed as lesion diameter at 33 mg/kg/day, intralesionally administered after 1 week post infection 3 times per week for 6 weeks measured on week 7 relative to control; assay type: functional, organism-based

Row | Compound | selectivity ratio at 72 h [1] | Ratio IC50 [2] | MIC [3] [µM] | MIC [4] [µM] | Activity (Leishmania amazonensis [5]) [%] | Activity (Leishmania amazonensis [6]) [mm] | Activity (Leishmania amazonensis [7]) [%] | Activity (Leishmania amazonensis [8]) [mm] | Activity (Leishmania amazonensis [9]) [mm]
1 | CO[C@H]1/C=C/O[C@@]2(C)Oc3c(C)c(O)c4c(O)c(c(/C=N/N5CCN(C)CC5)c(O)c4c3C2=O)NC(=O)/C(C)=C\C=C\[C@H](C)[C@H](O)[C@@H](C)[C@@H](O)[C@@H](C)[C@H](OC(C)=O)[C@@H]1C [RIFAMPIN] | 1080 | 1080 | 0.1 (≈ 0.0823 µg/mL) | < 1.9 | – | – | – | – | –
2 | MEGLUMINE ANTIMONATE | – | – | – | – | 100 | 2.1 | 100 | 4.7 | 2.2
